This note sets out measurements from article PMC5716981, “Inhibition of A2A Adenosine Receptor Signaling in Cancer Cells Proliferation by the Novel Antagonist TP455” (Frontiers in Pharmacology, 2017).

The test system of test [1] is A549 cells. Put plainly: DELFIA cell proliferation (BrdU) in A549 cells. The test is classed as cell-based, human. The conditions noted are these: 10 μM inhibitor 30 min pretreatment, 100 nM CGS21680, 24 h. The procedure: (§1) Tumoral cell lines A375 (human skin malignant melanoma), A549 (adenocarcinomic human alveolar basal epithelial cells) and rat cell line MRMT-1 (rat breast carcinoma cells) were purchased from ATCC and were grown adherently at 37°C in 5% CO2/95% air. A375 and A549 were maintained in DMEM high glucose medium containing 10% fetal calf serum, penicillin (100 U/mL) and streptomycin ([…]) and MRMT-1 were grown in RPMI 1640 medium containing 10% fetal calf serum, penicillin (100 U/mL), streptomycin ([…]), and L-glutamine (2 mM). Adenosine receptor agonists and antagonists and inhibitors of kinases, were made up in dimethyl sulfoxide solution (DMSO) and then diluted in cell culture medium (0.1 max 0.2% of DMSO). An equal amount of DMSO was used in control cells (CTR).
(§2) The DELFIA assay was performed to determine cell proliferation according to the manufacturer’s protocol from PerkinElmer (Milan, Italy). The assay is a time-resolved fluoroimmunoassay based on the incorporation of BrdU into newly synthesized DNA strands of proliferating cells cultured in microliter plates. Incorporated BrdU is detected using a europium labeled monoclonal antibody and the fluorescence measured is proportional to the DNA synthesis in the cell population of each well. A375, A549, and MRMT-1 cells were cultured over night at 1000 cells/well in a 96-well plate (at a final volume of 100 μl per well), agonists and antagonists were added and the cells were incubated for 30′ before addition of the BrdU-Labeling solution 10 μl/well. The cells were then cultured for 24, 48, or 72 h. At the end of the incubation period, cells were fixed (fix solution 100 μl/well), added with 100 μl/well of Anti-BrdU-Eu (0.5 μg/ml) and incubated for 120 min at room temperature. After four washes, 200 μl of DELFIA Inducer were added at room temperature for 15 min and the Eu-fluorescence was detected through an Ensight Perkin Elmer-multimode plate reader (Perkin Elmer, Milan, Italy). Two kinds of controls were performed: the blank where no cells were added to the well but only culture medium and the background where no BrdU was added to the wells.

The subject of test [2] is MRMT-1 cells. Put plainly: DELFIA cell proliferation (BrdU) in MRMT-1 cells. The test is classed as cell-based, rat. Particulars: 10 μM inhibitor 30 min pretreatment, 100 nM CGS21680, 48 h. The procedure:
as §1, §2

For test [3], the system named is A375 cells. The test can be described thus: DELFIA cell proliferation (BrdU) in A375 cells. The test is classed as cell-based, human. Particulars: 10 μM inhibitor 30 min pretreatment, 100 nM CGS21680, 48 h. On the procedure: as §1, §2

With `Oc1ccc(-c2nc(-c3ccc(F)cc3)c(-c3ccncc3)[nH]2)cc1` [SB202190, 4-(4-Fluorophenyl)-2-(4-hydroxyphenyl)-5-(4-pyridyl)-1H-imidazole], the “inhibition of CGS21680-induced cell proliferation by signalling inhibitor” value (shortened to “inhibition”) in test [1], in test [2] and in test [3] was “did not” each time.
Consider `CCCCCCCCCCCCCCCCCCOC[C@H](COP(=O)(O)O[C@H]1[C@H](O)[C@@H](O)[C@H](O)C[C@H]1OC)OC` [SH5, D-3-Deoxy-2-O-methyl-myo-inositol 1-[(R)-2-methoxy-3-(octadecyloxy)propyl hydrogen phosphate]], for which the “inhibition” value in test [1], in test [2] and in test [3] was “strongly reduced” each time.
With `Oc1c2ccccc2c2c3c(cccc13)N=N2` [SP600125, 1,9-Pyrazoloanthrone], the “inhibition” value in test [1], in test [2] and in test [3] was “strongly reduced” throughout.
Consider `Nc1ncnc2c1ncn2C1CCCO1` (stereo not drawn) [SQ22,536], for which the “inhibition” value in test [1], in test [2] and in test [3] was “did not block the agonist effect” each time.
In the case of `N#CC(=C(/N)Sc1ccccc1N)/C(C#N)=C(/N)Sc1ccccc1N` [U0126], the “inhibition” value in test [1], in test [2] and in test [3] was “strongly reduced” each time.
